Key:
wild-type CHO cells = experiment: Pulse chase of 125I-apoE+β-VLDL, wild-type CHO cells; assay type: cell-based, Chinese hamster; conditions: for Total: recovery in the fractions; for bound to the cells at 4° C. (zero time): wild-type CHO cells
Method: (§1) Cultured cells were grown to ˜100% confluence, placed on ice, and washed twice with cold DMEM-Hepes. The cells were then incubated with ^125I-apoE+β-VLDL at 4° C. for 1 h to allow for cell-surface binding (zero time bound ligand). Cells were rinsed three times with cold F12 medium to remove unbound ligands. Prewarmed F12 medium was added; and the cells were incubated at 37° C. for the times indicated. At each point, the cells were again placed on ice, and the culture medium was collected. To 0.5 ml of medium was added 0.4 ml of 0.2% bovine serum albumin (Sigma) and 0.4 ml of 50% trichloroacetic acid (TCA). The medium was then incubated at 4° C. for 30 min and centrifuged at 3,000 rpm for 10 min. The supernatant was collected for ^125I-apoE degradation assay, and the pellet was counted as TCA-precipitable intact ^125I-apoE. The cells were washed once with cold DMEM-Hepes, incubated with 10 mM suramin on ice in a cold room for 30 min, and then dissolved in 0.1 N NaOH. Cellular radioactivity (internalized apoE) was measured with a gamma counter, and protein concentration was determined by Lowry's method.
To evaluate these possibilities, we conducted a modified A pulse-chase@ study in which CHO cells were incubated with ^125I-apoE-enriched β-VLDL for 1 h at 4° C., washed to remove unbound lipoproteins, and then warmed to 37° C. for various times to follow internalization, degradation, and retention (see Materials and Methods). At the specific times, the medium was removed for analysis of both degradation products (degraded apoE) and TCA-precipitable proteins (released intact apoE), and the cells were washed with suramin (suramin-releasable apoE) and then counted (internalized apoE).

HepG2 cells = experiment: Cell association of 125I-apoE-enriched β-VLDL by HepG2 cells; assay type: cell-based, human
emulsion particles = experiment: Control emulsion binding assays without compounds; conditions: n = 9; no compound
Method: Preparation of emulsion particles. Triolein (160 mg) and L-alpha-Phosphatidylcholine (40 mg) are combined and dried under nitrogen. After the addition of 8 mls of buffer (10 mM Tris, 100 mM KCl, 1 mM EDTA, pH 8.0), the mixture is sonicated in a water bath to obtain a heterogeneous mix of emulsion particles. The particles are harvested by ultracentrifugation (TLA 100.2 rotor, 30,000 rpm for 30 minutes) and the subsequent lipid cake is removed by tube slicing and resuspended in 100 μt 20 mM Phosphate Buffer (PB). Triolein and phospholipid content are measured and total emulsion particle concentration is determined.
Radiolabelling Freshly denatured and renatured Apolipoprotein E3 and E4 are radiolabelled using Bolton-Hunter Reagent [^125I] (ICN). Specific Activity is determined using Lowry method and Gamma 8000 counter.
Binding Affinity Assay. […] In glass tubes, 25 μg of protein (with iodinated tracer) was reduced with 1% β-mercaptoethanol. Two hundred and fifty μg of emulsion particles and 2.5 μl of compound (10 mM stock) were added and the final mixture was brought up to 250 μl with 20 mM phosphate buffer (PB). The reaction mixture was then incubated in a 37° C. water bath for 2 hours before being transferred to 1.5 ml ultracentrifuge tubes. Finally, 50 μl of 60% sucrose was mixed with the sample and 400 μl 20 mM PB was carefully layered on top. Using a TLA 100.2 rotor, the tube was spun at 30,000 rpm for 30 minutes and subsequently cut to separate the floating emulsion particle layer from the free protein at the bottom of the tube. These fractions were then combined with the respective half of the actual tube and counted using a Gamma-8000.

HSPG-deficient CHO cells = experiment: Pulse chase of 125I-apoE+β-VLDL, HSPG-deficient CHO cells; assay type: cell-based, Chinese hamster
Method: as §1

| Substance | Total (wild-type CHO cells; 30 min) | Degraded (wild-type CHO cells; 30 min at 37° C.) | Internalized (retained) (wild-type CHO cells; 30 min at 37° C.) | Suramin-releasable (cell surface) (wild-type CHO cells; 30 min at 37° C.) | TCA-precipitable (released intact) (wild-type CHO cells; 30 min at 37° C.) | Total (wild-type CHO cells; 60 min) | Degraded (wild-type CHO cells; 60 min at 37° C.) | Internalized (retained) (wild-type CHO cells; 60 min at 37° C.) | Suramin-releasable (cell surface) (wild-type CHO cells; 60 min at 37° C.) | TCA-precipitable (released intact) (wild-type CHO cells; 60 min at 37° C.) | Total (wild-type CHO cells; 120 min) | Degraded (wild-type CHO cells; 120 min at 37° C.) | Internalized (retained) (wild-type CHO cells; 120 min at 37° C.) | Suramin-releasable (cell surface) (wild-type CHO cells; 120 min at 37° C.) | TCA-precipitable (released intact) (wild-type CHO cells; 120 min at 37° C.) | bound to the cells at 4° C. (zero time) (wild-type CHO cells) | cell association (HepG2 cells; 4 hours) | cell association (HepG2 cells; 8 hours) | Mean % bound (emulsion particles) | Mean % free (emulsion particles) | other results |
| --- | --- | --- | --- | --- | --- | --- | --- | --- | --- | --- | --- | --- | --- | --- | --- | --- | --- | --- | --- | --- | --- |
| apoE3: human apolipoprotein E3 isoform, also iodinated | 399 ng/mg cell protein | 15 ng/mg cell protein | 157 ng/mg cell protein | 45 ng/mg cell protein | 182 ng/mg cell protein | 377 ng/mg cell protein | 34 ng/mg cell protein | 123 ng/mg cell protein | 39 ng/mg cell protein | 181 ng/mg cell protein | 367 ng/mg cell protein | 45 ng/mg cell protein | 78 ng/mg cell protein | 12 ng/mg cell protein | 232 ng/mg cell protein | 399 ng/mg of cell protein | 1062 ± 171 ng/mg cell protein | 1466 ± 38 ng/mg cell protein | 29.8% | 70.2% | Median % bound (emulsion particles): 33%; Median % free (emulsion particles): 67%; Range % bound (emulsion particles): 20-39%; Range % free (emulsion particles): 61-81%; bound to the cells (HSPG-deficient CHO cells): 77 ng/mg of cell protein |
| apoE4: human apolipoprotein E4 isoform, also iodinated | 368 ng/mg cell protein | 12 ng/mg cell protein | 84 ng/mg cell protein | 27 ng/mg cell protein | 245 ng/mg cell protein | 338 ng/mg cell protein | 35 ng/mg cell protein | 55 ng/mg cell protein | 10 ng/mg cell protein | 238 ng/mg cell protein | 305 ng/mg cell protein | 43 ng/mg cell protein | 27 ng/mg cell protein | 10 ng/mg cell protein | 225 ng/mg cell protein | 378 ng/mg of cell protein | 51 ± 10 ng/mg cell protein | 683 ± 6 ng/mg cell protein | 59.4% | 40.6% | Median % bound (emulsion particles): 60%; Median % free (emulsion particles): 40%; Range % free (emulsion particles): 30-50%; bound to the cells (HSPG-deficient CHO cells): 75 ng/mg of cell protein |

From US7964598B2 (The J. David Gladstone Institutes, priority 1995, dated 2011)
